Experiments:
[1] = system: primary T cells; assay: Stem cell memory T cell phenotype by flow cytometry (CD45RA+CD62L+); type: cell-based, human; conditions: for stem cell frequency (Tscm phenotype ratio), fold increase over Control: day 20, gated on CD8
Description: Primary T cells were activated as described (Example 3), transduced with a lentivirus encoding for either a shUSP16 or a non-targeting shRNA (Ctrl) and sorted for GFP on day 8. Cells were cultured in the presence of IL-2 and their phenotype was analyzed at day 20. Cells were stained for CD4-PerCP-5.5 or CD8-BV510, CD62L-Allophycocyanin, CD45RA-BV510 or PE-Cy7 (Biolegend). Naïve or stem cell memory T cells (TNa/SCM) were identified as Sytox^− GFP^+CD45RA^+CD62L^+. Number of TNa/SCM was calculated as (#CD4 or CD8 T cells*TNa/SCMpercentage)/100. Flow cytometry was performed on the MACQuant (Myltenyi Biotec) and the data analyzed with FlowJo (shCtrl vs shUSP CD4: 0.4978 vs 0.7915, p=0.0673 and CD8: 2.469 vs 4.984, p=0.00392, n=7). Downregulation of USP16 expression increases the number of CD4+CD45RA+CD62L+(FIG. 11A) and CD8+CD45RA+CD62L+(FIG. 11B) cells in culture by 1.7 (p=0.0205) and 1.9 (p=0.0097) times, respectively.
Primary T cells were activated as described (Example 3), transduced with a lentivirus encoding either a shUSP16 #1, shUSP16 #2 or a non-targeting shRNA (shCtrl) and cells were selected with puromycin at day 6. At day 15 cell were collected and analyzed by qPCR for the expression of LEF1 (FIG. 16A) and TCF7 (FIG. 16B), downstream regulators of the WNT pathway. At day 20, cells were stained for CD4-PE, CD8-BV510, CD62L-Allophycocyanin and CD45RA-APC-Cy7 (Biolegend). Stem cell memory T cells (Tscm) were identified as Sytox^− GFP^+CD45RA^+CD62L^+, central memory T cells (Tcm) as Sytox^−GFP^+CD45RA^−CD62L^+, effector memory T cells (Tem) as Sytox^−GFP^+CD45RA^−CD62L^−, and terminal effector T cell (Teff) as Sytox^−GFP^+CD45RA^+CD62L^− (FIG. 17A). Cells were gated on the CD8 population. The specific increase of Tscm was shown as phenotype ratio (FIG. 17B).
Primary T cells were activated as described (Example 3). At Day 6 post-activation, dynabeads were removed and T cells electroporated using the Neon Transfection System (ThermoFisher) with a 2.5:1 ratio sgRNA:Cas9. The experiment was performed following the protocol optimized for primary T cell by Synthego (CRISPR Editing Human Primary CD4+ T cells with RNPs using Neon Electroporation Protocol, 2018 version). The sgRNA used are the following: gUSP16 #1 5′-[…]-3′ (SEQ ID NO: 10) and gSynthego that comprises 3 different sgRNAs (gRNA-A: 5′-[…] 3′ (SEQ ID NO: 11); gRNA-B: 5′-[…]-3′ (SEQ ID NO: 12); gRNA-C: 5′-[…]-3′ (SEQ ID NO: 13)). Control T cells, identified as Mock, were electroporated but no Cas9:sgRNA mixture was added. […] At day 15 post-activation, cells were stained for CD4-PE, CD8-BV510, CD62L-Allophycocyanin and CD45RA-APC-Cy7 (Biolegend). Stem cell memory T cells (Tscm) were identified as Sytox^−GFP^+CD45RA^+CD62L^+ and graphed as ratio compared to mock cells (FIG. 22). The experiment was repeated using primary T cells obtained from buffy coats of 2 different healthy donors.
Primary T cells were activated as described (Example 3), transduced with a lentivirus encoding for either a CD19.CAR or a GD2.CAR co-expressing shUSP16 #1, shUSP16 #2 or a scrambled shRNA (Control). At day 15, GD2.CAR and CD19.CAR T cells were stained for EGFR-AF488 (R&D), CD3-PE, CD8-BV510, CD62L-Allophycocyanin and CD45RA-APC-Cy7 (Biolegend). Stem cell memory T cells (Tscm) were identified as FITC^+CD45RA^+CD62L^+, central memory T cells (Tcm) as FITC^+CD45RA^−CD62L^+, effector memory T cells (Tem) as FITC^+CD45RA^−CD62L^−, and terminal effector T cell (Teff) as FITC^+CD45RA^+CD62L^−. Cells were gated on the CD8 population. The specific increase of Tscm was shown as phenotype ratio (FIGS. 28A and 28B).

[2] = system: NALM cells; assay: Re-challenge cytotoxicity assay, CD19.CAR T cells; type: cell-based, human; conditions: after double tumor-challenge, n=3
Description: Primary T cells were activated as described (Example 3), transduced with a lentivirus encoding for either a CD19.CAR or a GD2.CAR co-expressing shUSP16 #1, shUSP16 #2 or a scrambled shRNA (Control). Cells were cultured in IL-2 and sorted between days 6-13 for EGFRt. At day 16 cytotoxicity assays were performed. Briefly, cells were counted and 100,000 T cells (adjusted for EGFR expression) were plated at 1:5 Effector:Target (E:T) ratio. At 72 hours, the mixture of tumor cells and T cells were collected, stained for CD3-PE, CD8-BV510, CD19- or GD2-APC, EGFR-AF488 and Sytox and counted by flow cytometry (MACSQuant, Miltenyi Biotec) (FIGS. 30A and 30B). Counting beads (CountBright Absolute Counting beads, Invitrogen) were added before acquisition and absolute number was calculated as following (number of cell events/number of bead events)×(assigned bead count of the lot (beads/50 ul)/volume of sample (ul))=concentration of sample as cells/ul). NALM cells were used as target cells for CD19.CAR T cells and CHLA-55 cells were used as target for GD2.CAR T cells. Three different primary T cell cultures were tested for CD19 and GD2 CAR.
At day 16, regular cytotoxicity assays were also performed (Example 22). Three days post-antigen stimulation, CD19.CAR T cells were stained for EGFR-AF488 (R&D), CD3-PE, CD8-BV510, PD-1-Allophycocyanin and Lag-3 and CTLA4 (Biolegend) and acquired by MACSQuant (Miltenyi Biotec). The co-cultures we also re-challenged with the addition of fresh tumor cells. T cell killing and expansion upon double tumor-challenge was assessed after three days.

| Substance | stem cell frequency (Tscm), fold change vs Control ([1]; CD19.CAR, day 15, n=5) | stem cell frequency (Tscm), fold change vs Control ([1]; GD2.CAR, day 15, n=4) | stem cell frequency (Tscm phenotype ratio), fold increase over Control [1] | T cell number [2] | residual tumor cells (NALM) [2] |
| --- | --- | --- | --- | --- | --- |
| shUSP16 #1: shRNA targeting USP16, 5′-GACTGTAAGACTGACAATAAA-3′ (SEQ ID NO: 8), pSIH backbone or co-expressed in CAR plasmid | 1.994 | 1.347 | 2.022 | 192643 | 282761 |
| shUSP16 #2: shRNA targeting USP16, 5′-TATATCAGTTCACCCGTAAT-3′ (SEQ ID NO: 9), pSIH backbone or co-expressed in CAR plasmid | 2.273 | 1.383 | 2.63 | 204291 | 160874 |

From patent US20210290680A1, “METHODS AND COMPOSITIONS FOR MODULATING CELLULAR AGING” (Dorian Therapeutics, Inc., priority 2019, published 2021)
